Results: US10676746B2, “Methods for identifying therapeutic targets and treating monitoring cancers” (Fred Hutchinson Cancer Research Center, priority 2013, dated 2020)
pIC50: −log10 of the molar value. “Also recorded” adds a separate entry of the source.

Experiments:
[1] = tested on: PCI-15B xenografts; experiment: Xenograft tumor model; assay type: in vivo, mice
[2] = tested on: HNSCC cells; experiment: Dose-response curves with kinase inhibitors, CellTiterGlo viability, HNSCC cells; assay type: cell-based, human; conditions: for effect on viability of p53 mutant HNSCC cells: autologous pairs UMSCC-14A, UMSCC-14C, PCI-15A, PCI-15B, result in words; for pIC50: Homo sapiens
Protocol: (§1) Kinase inhibition dose response curves were performed with six kinase inhibitors (MK-1775 (a.k.a., […]), TAE684, PI828, PIK93, PP2, PF-562271) against kinase targets (WEE1, ALK, PI3K, PIK4CB, FYN, FAK (ILK surrogate)), respectively. Kinase inhibitors: MK-1775 (S1525), PIK93 (S1489), TAE684 (S1108) were obtained from Selleck Chemicals (Houston, Tex.); PI828 (2814), PP2 (1407) from Tocris Bioscience (Mpls, Minn.), and PF-562271 from Synkinase (San Diego, Calif.). All HNSCC (UMSCC-17A, UM-SCC47A, PCI-15A, PCI-15B, UM-SCC14A, UM-SCC14C) and MSCC (CK1: p53+/+ and CK4: p53−/−) cells were plated at ˜5-10×10^3 cells/100 μl per well, and incubated at 37° C. for ˜24 hours on 96-well assay plates (Corning Inc.). Serial dilutions of the kinase inhibitors and vehicle control (DMSO) were prepared in 1 mL assay blocks at 3× working concentration to generate dose-response curves ranging from 100 μM to 0.03 μM. All serial dilutions were prepared using cell culture media. Approximately 72 hours post-treatment, cells were assessed for metabolic activity via ATP using CellTiterGlo (Promega), following the protocol outlined by the manufacturer utilizing an FLx800, and/or a Synergy H4 Hybrid multi-mode reader (Biotek). All assays were performed in triplicate and normalized to wells with no treatment. Dose-response curves and IC50 values were generated using GraphPad Prism Version 5 (Parameters: nonlinear regression fit; equation=log (inhibitor) vs. response−variable slope (four parameters); single constraint).

[3] = tested on: MSCC cells; experiment: Dose-response curves with kinase inhibitors, CellTiterGlo viability, MSCC cells; assay type: cell-based, murine; conditions: for pIC50: Mus musculus
Protocol: as §1

[4] = design: species or system mice; conditions: mouse, in vivo
Protocol: PCI-15B cells were inoculated subcutaneously into the right flanks of 28 eight-week old NOD/SCID IL2 gamma null mice (NSG) provided by the Olson laboratory at the Fred Hutchinson Cancer Research Center. When tumors reached a palpable mass of >50 mm^3, mice were randomly assigned into four treatment groups of seven mice each and all measurements and treatment regimens were carried out using a double-blind protocol. The WEE1 inhibitor MK-1775 (S1525-Selleck Chemicals, Houston, Tex.) was delivered by oral gavage (30 mg/kg) twice per week for 4 weeks in dimethylsulfoxide in 0.5% methylcellulose (M0512, Sigma Aldrich) in a 1:14 suspension. Cisplatin (P4394, cis-diammineplatinum (II) dichloride, Sigma Aldrich) was delivered via intra-peritoneal injection (4.0 mg/kg) once a week for 4 weeks. The volume of the implanted tumor was measured weekly with calipers and tumor volumes calculated using the formula: V=L×W^2/2; in which V, volume (mm^3); L, largest diameter (mm); W, smallest diameter (mm). All animal protocols were approved by the Fred Hutchinson Cancer Research Center Laboratory Animal Care and Use Committee.

[5] = tested on: HNSCC cells (PCI-15B, UMSCC-17A); experiment: Mitotic entry and cell cycle analysis by flow cytometry; assay type: cell-based, human; conditions: for mitotic entry, phospho-histone H3 (serine 10): 1 μM
Protocol: (§2) Mitotic entry was assessed as previously described (Aarts, M. et al, Cancer Discov 2012; 2:524-39). Briefly, HNSCC cells (PCI-15B, UMSCC-17A) were treated with 1 μM MK-1775 for 8 and 24 hours, and all cells were harvested, washed, and incubated with rabbit monoclonal antibody to phospho-histone H3 (Serine10) (Cell Signaling Technology, Cat. No. 3465, Danvers, Mass.) for 2 hours at RT, washed, and DNA stained with 20 μg/ml propidium iodide, RNaseA in PBS (Sigma-Aldrich; Cat. Nos. P4170, R6513). Flow cytometric analysis was performed utilizing a BD FACS Canto II, and profiles analyzed with BD Cell Quest software (Becton Dickinson, CA). Caspase-3/7 dependent apoptosis was assessed as per protocol (Promega, Cat. No. G8091) utilizing a SynergyH4 Hybrid Reader (Biotek, VT). AUCs were calculated for all treatments and vehicle (DMSO) for all cell lines utilizing two measurements over a 48-hour period with three concentrations (30 nm, 100 nm, 1 μM) of MK-1775.

[6] = tested on: HNSCC cells; experiment: Caspase-3/7 dependent apoptosis assay; assay type: cell-based, human; conditions: p53 mutant cells
Protocol: as §2

[7] = tested on: WEE1; experiment: Immunoblotting of xenograft tumor lysates; assay type: in vivo; conditions: oral MK-1775 treated mice vs vehicle
Text: Tumor tissues were minced and homogenized on ice in M-PER Mammalian Protein Extraction Reagent supplemented with Halt Protease and Phosphatase Inhibitor Cocktail (Thermo Fisher Scientific). Extracted proteins were quantified by a BCA protein assay (Thermo Fisher Scientific). […] Anti-WEE1 (Cat. No. 4936), anti-phospho-WEE1 ([…]) (Cat. No. 4910), anti-CDC2 (Cat. No. 9112), and anti-phospho-CDC2 (Tyr15) (Cat. No. 4539) antibodies were purchased from Cell Signaling Technology (Danvers, Mass.). The secondary antibodies used were ZyMaxTM horseradish peroxidase (HRP) conjugated goat-anti-rabbit IgG (Life Technologies). HRP was detected with SuperSignal West Pico Chemiluminescent Substrate kit (Thermo Fisher Scientific).

[8] = p53−/− (p53 deficient) MSCC cells

SMILES: N.N.[Cl][Pt][Cl] [cisplatin, cis-diammineplatinum (II) dichloride]
- tumor regression (reduction) ([1]; cisplatin 4.0 mg/kg i.p. once a week, 4 weeks, MK-1775 given 24 hours after cisplatin): 60%

SMILES: CC(C)(C)n1nc(-c2ccc(Cl)cc2)c2c(N)ncnc21 [PP2]
- effect on viability of p53 mutant HNSCC cells [2]: impairs viability

SMILES: CN(c1ncccc1CNc1nc(Nc2ccc3c(c2)CC(=O)N3)ncc1C(F)(F)F)S(C)(=O)=O [PF-562271]
- effect on viability of p53 mutant HNSCC cells [2]: sensitive; also recorded: impairs viability

SMILES: Nc1ccc(-c2cccc3c(=O)cc(N4CCOCC4)oc23)cc1 [PI828]
- effect on viability of p53 mutant HNSCC cells [2]: impairs viability

SMILES: NC(=O)Nc1cc(-c2cccc(F)c2)sc1C(=O)N[C@H]1CCCNC1 [AZD7762]
- pIC50 ([3]; p53 wild type MSCC cells): 5.66
- pIC50 [3, 8]: 6.89

SMILES: C=CCn1c(=O)c2cnc(Nc3ccc(N4CCN(C)CC4)cc3)nc2n1-c1cccc(C(C)(C)O)n1 [MK-1775]
- tolerability of dosing regime [4]: well-tolerated
- pIC50 ([3]; p53 wild type MSCC cells): 5.35
- pIC50 [3, 8]: 6.66
- IC50 lower in p53−/− MSCC cells compared to p53 wild type cells ([3]; p53−/− vs p53 wild type MSCC): 20 fold
- 4N DNA content ([5]; p53 mutant cells): loss
- subG1 DNA content ([5]; p53 mutant cells): increase
- mitotic entry, phospho-histone H3 (serine 10) ([5]; p53 mutant cells (PCI-15B)): unscheduled mitotic entry
- mitotic entry, phospho-histone H3 (serine 10) ([5]; p53 wild type cells (UMSCC-17A)): not
- apoptotic marker caspase 3/7 [6]: activation
- inhibition of growth of HNSCC tumors as compared to vehicle ([1]; 30 mg/kg oral gavage twice weekly, 4-week protocol): 66%
- pIC50 ([2]; UMSCC14A, p53 mutant UMSCC-14A and UMSCC-14C cells and p53 wild type UMSCC-47 cells (intermediate)): 5.96 to 6.24
- pIC50 ([2]; p53 mutant PCI-15A and PCI-15B HNSCC cells): 6.77 to 6.85
- pIC50 ([2]; p53 wild type UMSCC-17A cells): 5.35
- effect on viability of p53 mutant HNSCC cells [2]: sensitive; also recorded: impairs viability
- phosphorylation of WEE1 in tumor lysates [7]: reduced phosphorylation
- phosphorylation of WEE1 substrate CDC2 in tumor lysates [7]: reduced phosphorylation

SMILES: CC(=O)Nc1nc(C)c(-c2ccc(Cl)c(S(=O)(=O)NCCO)c2)s1 [PIK93]
- effect on viability of p53 mutant HNSCC cells [2]: sensitive; also recorded: impairs viability

SMILES: COc1cc(N2CCC(N3CCN(C)CC3)CC2)ccc1Nc1ncc(Cl)c(Nc2ccccc2S(=O)(=O)C(C)C)n1 [TAE684]
- effect on viability of p53 mutant HNSCC cells [2]: sensitive; also recorded: impairs viability
